Experimental data reported in patent publication US8771665B2 (Cocrystal Discovery, Inc., priority 2010, dated 2014).
Where a name gives a salt, the structure may show the parent alone.

The compounds below were run against T1, HCV1b NS5B polymerase delta 21 (Hepatitis C virus genotype 1b, UniProt P26663) (assay: RNA-Dependent RNA HCV NS5B (Polymerase) Assay and IC50 Determination). Settings: not given.
T1 construct: purified HCV1b NS5B polymerase delta 21
T1 sequence (P26663 2420-2989): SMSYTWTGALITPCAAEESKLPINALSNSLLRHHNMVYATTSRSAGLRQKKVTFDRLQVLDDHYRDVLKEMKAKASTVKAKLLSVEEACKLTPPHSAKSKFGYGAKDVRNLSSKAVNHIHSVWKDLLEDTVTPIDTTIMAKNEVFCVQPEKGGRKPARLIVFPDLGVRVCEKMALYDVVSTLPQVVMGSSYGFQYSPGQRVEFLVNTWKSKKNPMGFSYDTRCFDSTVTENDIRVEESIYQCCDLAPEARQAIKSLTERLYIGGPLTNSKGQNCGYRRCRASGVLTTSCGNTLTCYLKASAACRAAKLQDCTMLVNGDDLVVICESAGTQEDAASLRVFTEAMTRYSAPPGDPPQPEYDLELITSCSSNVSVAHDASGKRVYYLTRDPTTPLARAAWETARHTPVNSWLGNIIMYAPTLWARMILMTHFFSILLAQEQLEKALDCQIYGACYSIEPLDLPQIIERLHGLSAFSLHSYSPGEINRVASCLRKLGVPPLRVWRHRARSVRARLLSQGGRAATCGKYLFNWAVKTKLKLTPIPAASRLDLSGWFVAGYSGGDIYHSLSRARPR
Assay type: biochemical
How it was run: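 Purified NS5B Δ21 (0.6 μg) with polyA:U16 template, 10 μM UTP plus α-32P UTP in Tris-HCl pH 7.5, 5 mM MgCl2, 0.5% Triton X-100, 60 min at 23°C with varied compound concentrations. Radiolabelled RNA captured on filters, quantified by phosphorimaging; IC50 from triplicate assays.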
In the case of `CCN1CCC(c2cc(-c3ccc(NC(=O)c4cccs4)cc3)sc2C(=O)O)=C(C2CCC(C)CC2)C1` (centres unmarked) [Example 028, 3-[1-Ethyl-5-(4-methyl-cyclohexyl)-1,2,3,6-tetrahydro-pyridin-4-yl]-5-{4-[(thiophene-2-carbonyl)-amino]-phenyl}-thiophene-2-carboxylic acid], the IC50 is reported as under 3 µM.
In the case of `CC1CCC(C2=C(c3cc(C#CC(C)(C)C)sc3C(=O)O)CN(CC3CCOC3)CC2)CC1` (centres unmarked) [Example 117, 5-(3,3-Dimethyl-but-1-ynyl)-3-[4-(4-methyl-cyclohexyl)-1-(tetrahydro-furan-3-ylmethyl)-1,2,5,6-tetrahydro-pyridin-3-yl]-thiophene-2-carboxylic acid], the IC50 is reported as under 3 µM.
Work on `CC1CCC(C2=C(c3cc(C#CC(C)(C)O)sc3C(=O)O)CCN(C)C2)CC1` (centres unmarked) [Example 011, 5-(3-Hydroxy-3-methyl-but-1-ynyl)-3-[1-methyl-5-(4-methyl-cyclohexyl)-1,2,3,6-tetrahydro-pyridin-4-yl]-thiophene-2-carboxylic acid] yielded an IC50 of under 3 µM.
Compound `CCN1CCC(c2cc(-c3ccc(NC(=O)C4CCCO4)cc3)sc2C(=O)O)=C(C2CCC(C)CC2)C1` (centres unmarked) [Example 058, 3-[1-Ethyl-5-(4-methyl-cyclohexyl)-1,2,3,6-tetrahydro-pyridin-4-yl]-5-{4-[(tetrahydro-furan-2-carbonyl)-amino]-phenyl}-thiophene-2-carboxylic acid] has an IC50 of under 3 µM.
`CC1CCC(C2=C(c3cc(-c4ccccc4)sc3C(=O)O)CCN(CC3CC3)C2)CC1` (centres unmarked) [Example 006, 3-[1-Cyclopropylmethyl-5-(4-methyl-cyclohexyl)-1,2,3,6-tetrahydro-pyridin-4-yl]-5-phenyl-thiophene-2-carboxylic acid] showed an IC50 of under 3 µM.
With `CC1CCC(C2=C(c3cc(-c4ccccc4)sc3C(=O)O)CCN(S(C)(=O)=O)C2)CC1` (centres unmarked) [Example 039, 3-[1-Methanesulfonyl-5-(4-methyl-cyclohexyl)-1,2,3,6-tetrahydro-pyridin-4-yl]-5-phenyl-thiophene-2-carboxylic acid] the IC50 was over 10 µM.
`CC1CCC(C2=C(c3cc(-c4ccc(C#Cc5cscn5)cc4)sc3C(=O)O)CCN(C)C2)CC1` (centres unmarked) [Example 129, 3-[1-Methyl-5-(4-methyl-cyclohexyl)-1,2,3,6-tetrahydro-pyridin-4-yl]-5-(4-thiazol-4-ylethynyl-phenyl)-thiophene-2-carboxylic acid, hydrochloride salt] showed an IC50 of under 3 µM.
In the case of `CC1CCC(C2=C(c3cc(-c4ccccc4)sc3C(=O)O)CCN(Cc3ccnc4ccccc34)C2)CC1` (centres unmarked) [Example 148, 3-[5-(4-Methyl-cyclohexyl)-1-quinolin-4-ylmethyl-1,2,3,6-tetrahydro-Pyridin-4-yl]-5-phenyl-thiophene-2-carboxylic acid], the IC50 is reported as over 10 µM.
For `CCOC(=O)OCOC(=O)c1sc(-c2ccc(NC(=O)c3cscn3)cc2)cc1C1=C(C2CCC(C)CC2)CN(C)CC1` (centres unmarked) [Example 107, 3-[1-Methyl-5-(4-methyl-cyclohexyl)-1,2,3,6-tetrahydro-pyridin-4-yl]-5-{4-[(thiazole-4-carbonyl)-amino]-phenyl}-thiophene-2-carboxylic acid ethoxycarbonyloxymethyl ester], the IC50 was under 3 µM.
`CC1CCC(C2=C(c3cc(C#CC(C)(C)C)sc3C(=O)O)CN(CCCO)CC2)CC1` (centres unmarked) [Example 114, 5-(3,3-Dimethyl-but-1-ynyl)-3-[1-(3-hydroxy-propyl)-4-(4-methyl-cyclohexyl)-1,2,5,6-tetrahydro-pyridin-3-yl]-thiophene-2-carboxylic acid] gave an IC50 of under 3 µM.
With `CC1CCC(C2=C(c3cc(-c4ccccc4)sc3C(=O)O)CCN(C(C)C)C2)CC1` (centres unmarked) [Example 009, 3-[1-Isopropyl-5-(4-methyl-cyclohexyl)-1,2,3,6-tetrahydro-pyridin-4-yl]-5-phenyl-thiophene-2-carboxylic acid] the IC50 was 3 to 10 µM.
With `CCCCN1CCC(c2cc(-c3ccccc3)sc2C(=O)O)=C(C2CCC(C)CC2)C1` (centres unmarked) [Example 007, 3-[1-Butyl-5-(4-methyl-cyclohexyl)-1,2,3,6-tetrahydro-pyridin-4-yl]-5-phenyl-thiophene-2-carboxylic acid] the IC50 was under 3 µM.
`CC1CCC(C2=C(c3cc(-c4ccccc4)sc3C(=O)O)CCN(C(=O)c3ccncc3)C2)CC1` (centres unmarked) [Example 094, 3-[5-(4-Methyl-cyclohexyl)-1-(pyridine-4-carbonyl)-1,2,3,6-tetrahydro-pyridin-4-yl]-5-phenyl-thiophene-2-carboxylic acid] was tested, and the IC50 was 3 to 10 µM.
Work on `CCN1CCC(c2cc(C#CC3CCCCC3)sc2C(=O)O)=C(C2CCC(C)CC2)C1` (centres unmarked) [Example 016, 5-Cyclohexylethynyl-3-[1-ethyl-5-(4-methyl-cyclohexyl)-1,2,3,6-tetrahydro-pyridin-4-yl]-thiophene-2-carboxylic acid] yielded an IC50 of over 10 µM.
For `CC1CCC(C2=C(c3cc(-c4ccccc4)sc3C(=O)O)CCN(Cc3cccnc3)C2)CC1` (centres unmarked) [Example 089, 3-[5-(4-Methyl-cyclohexyl)-1-pyridin-3-ylmethyl-1,2,3,6-tetrahydro-pyridin-4-yl]-5-phenyl-thiophene-2-carboxylic acid], the IC50 was under 3 µM.
`CC1CCC(C2=C(c3cc(-c4ccc(-n5cc6ncccc6n5)cc4)sc3C(=O)O)CCN(C)C2)CC1` (centres unmarked) [Example 165, 3-[1-Methyl-5-(4-methyl-cyclohexyl)-1,2,3,6-tetrahydro-pyridin-4-yl]-5-(4-pyrazolo[4,3-b]pyridin-2-yl-phenyl)-thiophene-2-carboxylic acid] gave an IC50 of under 3 µM.
`CC1CCC(C2=C(c3cc(-c4ccccc4)sc3C(=O)O)CCN(C(N)=O)C2)CC1` (centres unmarked) [Example 084, 3-[1-Carbamoyl-5-(4-methyl-cyclohexyl)-1,2,3,6-tetrahydro-pyridin-4-yl]-5-phenyl-thiophene-2-carboxylic acid] showed an IC50 of under 3 µM.
`CC1CCC(C2=C(c3cc(-c4ccccc4)sc3C(=O)O)CCN(Cc3ccccn3)C2)CC1` (centres unmarked) [Example 087, 3-[5-(4-Methyl-cyclohexyl)-1-pyridin-2-ylmethyl-1,2,3,6-tetrahydro-pyridin-4-yl]-5-phenyl-thiophene-2-carboxylic acid] was tested, and the IC50 was under 3 µM.
`CC1CCC(C2=C(c3cc(-c4ccc(NC(=O)c5cscn5)cc4)sc3C(=O)O)CCN(Cc3ccccn3)C2)CC1` (centres unmarked) [Example 131, 3-[5-(4-Methyl-cyclohexyl)-1-pyridin-2-ylmethyl-1,2,3,6-tetrahydro-pyridin-4-yl]-5-{4-[(thiazole-4-carbonyl)-amino]-phenyl}-thiophene-2-carboxylic acid] was tested, and the IC50 was under 3 µM.
`CC1CCC(C2=C(c3cc(-c4ccccc4)sc3C(=O)O)CCN(CCCc3ccccc3)C2)CC1` (centres unmarked) [Example 110, 3-[5-(4-Methyl-cyclohexyl)-1-(4-phenyl-propyl)-1,2,3,6-tetrahydro-pyridin-4-yl]-5-phenyl-thiophene-2-carboxylic acid] gave an IC50 of over 10 µM.
With `CCN1CCC(c2cc(C#CC(C)(C)NC(=O)c3cscn3)sc2C(=O)O)=C(C2CCC(C)CC2)C1` (centres unmarked) [Example 022, 3-[1-Ethyl-5-(4-methyl-cyclohexyl)-1,2,3,6-tetrahydro-pyridin-4-yl]-5-{3-methyl-3-[(thiazole-4-carbonyl)-amino]-but-1-ynyl}-thiophene-2-carboxylic acid] the IC50 was over 10 µM.
Compound `CC1CCC(C2=C(c3cc(-c4ccccc4)sc3C(=O)O)CCN(Cc3ccnc(-c4cccs4)c3)C2)CC1` (centres unmarked) [Example 145, 3-[5-(4-Methyl-cyclohexyl)-1-(2-thiophen-2-yl-pyridin-4-ylmethyl)-1,2,3,6-tetrahydro-pyridin-4-yl]-5-phenyl-thiophene-2-carboxylic acid] has an IC50 of over 10 µM.
Compound `Cc1cc(C)n2nc(CN3CCC(c4cc(C#CC(C)(C)C)sc4C(=O)O)=C(C4CCC(C)CC4)C3)nc2n1` (centres unmarked) [Example 128, 5-(3,3-Dimethyl-but-1-ynyl)-3-[1-(5,7-dimethyl-[1,2,4]triazolo[1,5-a]pyrimidin-2-ylmethyl)-5-(4-methyl-cyclohexyl)-1,2,3,6-tetrahydro-pyridin-4-yl]-thiophene-2-carboxylic acid] has an IC50 of under 3 µM.
`CN1CCC(c2cc(-c3ccc(NC(=O)c4cscn4)cc3)sc2C(=O)O)=C([C@H]2CC[C@H](C)CC2)C1` [Example 047, 3-[1-Methyl-5-(4-methyl-cyclohexyl)-1,2,3,6-tetrahydro-pyridin-4-yl]-5-{4-[(thiazole-4-carbonyl)-amino]-phenyl}-thiophene-2-carboxylic acid] gave an IC50 of under 3 µM.
Work on `CC1CCC(C2=C(c3cc(C#CC(C)(C)C)sc3C(=O)O)CN(CC3CCOCC3)CC2)CC1` (centres unmarked) [Example 065, 5-(3,3-Dimethyl-but-1-ynyl)-3-[4-(4-methyl-cyclohexyl)-1-(tetrahydro-pyran-4-ylmethyl)-1,2,5,6-tetrahydro-pyridin-3-yl]-thiophene-2-carboxylic acid] yielded an IC50 of under 3 µM.
In the case of `CC1CCC(C2=C(c3cc(-c4ccccc4)sc3C(=O)O)CCN(C(=O)c3ccc(C(F)(F)F)nc3)C2)CC1` (centres unmarked) [Example 154, 3-[5-(4-Methyl-cyclohexyl)-1-(6-trifluoromethyl-pyridine-3-carbonyl)-1,2,3,6-tetrahydro-pyridin-4-yl]-5-phenyl-thiophene-2-carboxylic acid], the IC50 is reported as under 3 µM.
`CCOC(=O)OC(C)OC(=O)c1sc(-c2ccc(NC(=O)c3cscn3)cc2)cc1C1=C(C2CCC(C)CC2)CN(C)CC1` (centres unmarked) [Example 104, 3-[1-Methyl-5-(4-methyl-cyclohexyl)-1,2,3,6-tetrahydro-pyridin-4-yl]-5-{4-[(thiazole-4-carbonyl)-amino]-phenyl}-thiophene-2-carboxylic acid 1-ethoxycarbonyloxy-ethyl ester] was tested, and the IC50 was over 10 µM.
`CC1CCC(C2=C(c3cc(C#CC4(c5ccccc5)CC4)sc3C(=O)O)CCN(C)C2)CC1` (centres unmarked) [Example 173, 3-[1-Methyl-5-(4-methyl-cyclohexyl)-1,2,3,6-tetrahydro-pyridin-4-yl]-5-(1-phenyl-cyclopropylethynyl)-thiophene-2-carboxylic acid] showed an IC50 of over 10 µM.

Same assay, conditions: purified HCV1b NS5B polymerase delta 21, polyA:U16, RT 60 min, triplicate assays
In the case of `CC1CCC(C2=C(c3cc(-c4ccccc4)sc3C(=O)O)CCN(Cc3ccccc3)C2)CC1` (centres unmarked) [Example 079, 3-[1-Benzyl-5-(4-methyl-cyclohexyl)-1,2,3,6-tetrahydro-pyridin-4-yl]-5-phenyl-thiophene-2-carboxylic acid], the IC50 is reported as 3 to 10 µM.
